Measured values taken from US8940936B2, “Aryloxy phenoxy acrylic compound having HIF-1 inhibition activity, method for preparing same, and pharmaceutical composition containing same as an active ingredient” (Korea Research Institute of Bioscience and Biotechnology, priority 2010, dated 2015).

Experiments:
[1] = system: human rectal cancer cell line HCT116; test: In vivo anticancer activity, intravenous injection, HCT116 rectal cancer in nude mice; parameters: species or system mouse; settings: Example 1 30 mg/kg/day, topotecan 2 mg/kg/day; for Tumor volume changes (mm^3): iv; for Inhibition rate (%) of tumor volume: vs control
Method: To evaluate the inhibition effect of the compound prepared in example 1 administered via intravenous injection on the growth of rectal cancer, in vivo anticancer activity in mouse was measured. Particularly, nude-mice were grouped for experimental and control groups (5 mice per group). Changes in body weight, tumor volume, and tumor weight were measured to evaluate in vivo anticancer activity.
Female nude mice at 6 weeks (BALB/c nu/nu, Charles River) were raised in a germ-free facility where temperature and humidity were maintained at proper levels during the whole experimental period. After anesthetizing each mouse, the human rectal cancer cell line HCT116 was transplanted in rectal tissues at the density of 4×10^7 cells/mouse, and then the opened rectum was sealed with surgical clips. After transplanting the rectal cancer cell line, the tumor volume was measured with calipers. When the tumor volume reached 54.5 mm^3, the compound of the present invention prepared in example 1 was treated thereto. Particularly, for the experimental group, the compound of example 1 was dissolved in the solvent composed of saline (80%), DMAC (10%), and tween 80 (10%), which is indicated as ‘solvent A’ hereinafter, at the concentration of 30 mg/kg. […] The control was treated with the solvent A only without the compound once a day via oral administration at the dose of 15 ml/kg. The comparative group was treated with the solvent A containing topotecan (2 mg/kg) via intravenous injection once a day at the dose of 15 ml/kg. The weight and the tumor volume were measured once a day on day 0, 2, 3, 4, 5, 6, and 8.
(§1) Tumor volume was calculated by the following mathematical formula 1. To investigate the toxicity according to the repeated intravenous administration of the compound of example 1, mouse weight changes were observed and presented in Table 3. Inhibition rate (%) in Table 4 was calculated by the following mathematical formula 2, which indicates the inhibition of tumor growth by the compound presented by %. Tumor Volume(mm^3)=(major axis length of tumor cells, mm)×(minor axis length of tumor cells, mm)^2×0.5 [Mathematical Formula 1] Inhibition Rate (%)=[(Tumor Volume of Control−Tumor Volume of Experimental Group)/(Tumor Volume of Control)]×100 [Mathematical Formula 2]

[2] = Mouse weight changes and symptoms, repeated intravenous administration (HCT116 model); type: in vivo; settings: for Mouse weight changes (%): iv once a day, Example 1 30 mg/kg, topotecan 2 mg/kg
Method: Female nude mice at 6 weeks (BALB/c nu/nu, Charles River) were raised in a germ-free facility where temperature and humidity were maintained at proper levels during the whole experimental period. After anesthetizing each mouse, the human rectal cancer cell line HCT116 was transplanted in rectal tissues at the density of 4×10^7 cells/mouse, and then the opened rectum was sealed with surgical clips. After transplanting the rectal cancer cell line, the tumor volume was measured with calipers. When the tumor volume reached 54.5 mm^3, the compound of the present invention prepared in example 1 was treated thereto. Particularly, for the experimental group, the compound of example 1 was dissolved in the solvent composed of saline (80%), DMAC (10%), and tween 80 (10%), which is indicated as ‘solvent A’ hereinafter, at the concentration of 30 mg/kg. The prepared compound solution was intravenously administered to the experimental group mice once a day at the dose of […]. The control was treated with the solvent A only without the compound once a day via oral administration at the dose of 15 ml/kg. The comparative group was treated with the solvent A containing topotecan (2 mg/kg) via intravenous injection once a day at the dose of 15 ml/kg. The weight and the tumor volume were measured once a day on day 0, 2, 3, 4, 5, 6, and 8.
as §1

[3] = system: VEGF (vascular endothelial growth factor A); test: Expression of HIF-1 target gene VEGF (RT-PCR, HCT116); type: cell-based, human
Method: (§2) To investigate HIF-1 inhibition activity of the compound of the present invention, the inhibition of VEGF and EPO, two most representative HIF-1 target genes, by the compound of formula 1 prepared in example 1 was measured. Particularly, the colon cancer cell line HCT116 was used for the measurement as follows.
(§3) The human colon cancer cell line HCT116 was seeded in cell culture vessel at the density of 2×10^5 cell/ml, followed by culture for 24 hours. The cells were pretreated in hypoxic condition (oxygen 1%; nitrogen 94%; carbon dioxide 5%) for 4 hours to induce the accumulation of HIF-1α. The cells were treated with the compound of formula 1 prepared in example 1 at the concentrations of 0, 10, and 20 μM, followed by culture for 12 hours in hypoxic condition. Then, mRNA was extracted by using trizol. To compare the expression with that of HIF-1 target gene treated with the compound prepared in comparative example 1, the control was treated with the compound of comparative example 1 at the concentrations of 0, 10, 15, and 20 μM. From the extracted mRNA, cDNA was synthesized by using RT-PCR kit (Invitrogen). The amounts of mRNAs of the HIF-1α target genes VEGF (vascular endothelial growth factor A) and EPO (erythropoietin) were measured by using RT-PCR and real-time RT-PCR. […]

EPO (erythropoietin) = test: Expression of HIF-1 target gene EPO (RT-PCR, HCT116); type: cell-based, human; settings: mRNA, HCT116, hypoxic condition, 0, 10, 20 μM; FIG. 5
Method: as §2, §3

[4] = system: B16F10 melanoma cell line; test: Angiogenesis inhibition activity in B16F10 tumor tissue; type: in vivo, mouse; settings: FIG. 7, FIG. 8
Method: The following experiment was performed to investigate if the compound of formula 1 could inhibit angiogenesis along with the tumor growth.
Particularly, the experimental group composed of 5 female mice (C57BL) at 6 weeks was transplanted with B16F10 melanoma cell line. After the cancer cells were grown, the mice were treated with the compound of formula 1 via intraperitoneal injection at the dose of […] for 5 days. Inhibition of angiogenesis and the tumor growth were observed. In the meantime, the control group was treated with the mixed solution comprising 10% DMAC, 10% cremophor and 80% buffer (pH 10) every day. The comparative group was treated with topotecan at the dose of 2 mg/kg once every other day. Weight changes and the newly generated blood vessels were measured and the results are shown in Table 7, Table 8, FIG. 7, and FIG. 8. The tumor volume shown in Table 8 was calculated by the mathematical formula 1 of experimental example 4 and the inhibition rate was calculated by the mathematical formula 2 of experimental example 4.

Mouse weight changes (%) ([2]; day 0) | Mouse weight changes (%) ([2]; day 2) | Mouse weight changes (%) ([2]; day 3) | Mouse weight changes (%) ([2]; day 4) | Mouse weight changes (%) ([2]; day 5) | Mouse weight changes (%) ([2]; day 6) | Mouse weight changes (%) ([2]; day 8) | Compound | Tumor volume changes (mm^3) ([1]; day 0) | Tumor volume changes (mm^3) ([1]; day 2) | Inhibition rate (%) of tumor volume ([1]; day 2) | Tumor volume changes (mm^3) ([1]; day 4) | Inhibition rate (%) of tumor volume ([1]; day 4) | Tumor volume changes (mm^3) ([1]; day 6) | Inhibition rate (%) of tumor volume ([1]; day 6) | Tumor volume changes (mm^3) ([1]; day 8) | Inhibition rate (%) of tumor volume ([1]; day 8) | further results
100.0 ± 0.0% | 101.7 ± 1.0% | 101.8 ± 1.1% | 103.2 ± 5.4% | 99.1 ± 1.4% | 98.7 ± 1.7% | 95.6 ± 1.4% | CC[C@@]1(O)C(=O)OCc2c1cc1n(c2=O)Cc2cc3c(CN(C)C)c(O)ccc3nc2-1 [topotecan, reference compound] | 0.0 ± 0.0 mm^3 | 16.5 ± 3.9 mm^3 | 44.9% | 44.3 ± 10.1 mm^3 | 58.1% | 69.1 ± 13.2 mm^3 | 67.9% | 93.1 ± 22.3 mm^3 | 71.4% | –
100.0 ± 0.0% | 96.5 ± 2.9% | 94.7 ± 2.3% | 96.0 ± 3.5% | 100.3 ± 1.5% | 101.4 ± 2.5% | 99.9 ± 2.3% | COC(=O)c1cccc(NC(=O)/C=C/Oc2ccc(C34CC5CC(CC(C5)C3)C4)cc2)c1 [Example 1, (E)-3-[3-(4-Adamantan-1-yl-phenoxy)-acryloylamino]-benzoic acid methyl ester] | 0.0 ± 0.0 mm^3 | 19.4 ± 5.8 mm^3 | 35.3% | 50.6 ± 20.9 mm^3 | 52.1% | 114.3 ± 36.8 mm^3 | 47.0% | 176.8 ± 50.0 mm^3 | 45.7% | expression of GAPDH ([3]; internal control gene, HCT116, hypoxic condition): did not change; expression of VEGF ([3]; mRNA, HCT116, hypoxic condition, 0, 10, 20 μM, FIG. 5): inhibited the expressions of VEGF and EPO, the HIF-1 target genes, dose-dependently; expression of EPO (EPO (erythropoietin)): inhibited the expressions of VEGF and EPO, the HIF-1 target genes, dose-dependently; body weight on day 8 compared with control ([2]; 30 mg/kg iv, nude mice): no significant weight loss; symptoms during repeated intravenous administration ([2]; 30 mg/kg iv, nude mice): no specific symptom was observed; reduction of angiogenesis compared with non-treated group [4]: ~40%
